Patent publication US20210386783A1, “USE OF GLUCOSYLCERAMIDE SYNTHASE GENE-DEFICIENT T CELL AND THERAPEUTIC UTILIZATION THEREOF” (SCHOOL CORPORATION, AZABU VETERINARY MEDICINE EDUCATIONAL …, priority 2018, published 2021)

Experiments:
[1] = target: T1, UGCG (Mus musculus, UniProt O88693); experiment: Expression level of ganglioside GM3 in isolated T cells after in vitro PPMP treatment (flow cytometer); type: cell-based; settings: isolated mouse spleen T cells, PPMP 0, 1, 5 and 10 μM for 24 hours
T1 construct: endogenous in cells; host or cells: primary T cells isolated from mouse spleen
T1 sequence (O88693 1-394): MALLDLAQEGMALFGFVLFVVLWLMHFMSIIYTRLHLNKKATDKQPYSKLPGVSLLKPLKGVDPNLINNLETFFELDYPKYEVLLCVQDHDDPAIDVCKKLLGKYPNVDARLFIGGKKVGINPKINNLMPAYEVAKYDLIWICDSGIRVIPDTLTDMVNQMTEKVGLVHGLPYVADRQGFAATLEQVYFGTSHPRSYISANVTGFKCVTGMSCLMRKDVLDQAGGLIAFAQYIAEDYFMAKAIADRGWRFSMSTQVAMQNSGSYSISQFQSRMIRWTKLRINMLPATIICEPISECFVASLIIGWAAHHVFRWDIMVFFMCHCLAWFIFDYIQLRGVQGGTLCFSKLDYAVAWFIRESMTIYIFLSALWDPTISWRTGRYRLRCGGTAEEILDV
Experimental: (§1) The isolated T cells were treated with PPMP in concentrations of 0, 1, 5 and 10 μM for 24 hours, and then measuring the expression level of GM3 (left view) and the proliferation rate of the cells (right view).
(§2) Using Dynabeads Untouched Mouse T Cells kit (Thermo fisher Scientific), T cells were isolated from the excised spleen, and the T cells were then activated by IL-2 (30 U/mL) and Dynabeads Mouse T-Cell activator CD3-CD28 (Thermo fisher Scientific). Thereafter, the T cells were recovered over time, and the expression of a PD-1 gene was then analyzed by qPCR. With regard to the proliferation rate of the T cells after the activation, the proliferation rate was increased in the cells derived from the T cell-specific UGCG gene-deficient mice (FIG. 7A).
(§3) The T cells were isolated in the same manner as that of the above 3, and the isolated T cells were then treated with PPMP used as a UGCG inhibitor in various concentrations for 24 hours. Thereafter, the expression level of ganglioside GM3 was analyzed using a flow cytometer. […] Moreover, in order to examine the toxicity of the PPMP treatment on T cells, the proliferation rate of the T cells was measured using a cell proliferation/cytotoxicity assay kit (CK-1, Dojindo).

[2] = tested on: T cells; experiment: Proliferation rate / toxicity of PPMP treatment on T cells (cell proliferation/cytotoxicity assay kit CK-1, Dojindo); type: cell-based, mouse; settings: isolated T cells
Experimental: as §1, §2, §3

[3] = tested on: neuroblastoma cell line; settings: combination with fenretinide; cited from earlier work
[4] = tested on: acute leukemia-derived cell line ALL; settings: combination with fenretinide; cited from earlier work

CCCCCCCCCCCCCCCC(=O)NC(CN1CCOCC1)C(O)c1ccccc1 (centres unmarked) [PPMP, 1-phenyl-2-hexadecanoylamino-3-morpholino-1-propanol]
expression level of ganglioside GM3 [1]: reduced in a PPMP concentration-dependent manner
proliferation rate of the T cells ([2]; PPMP 0, 1, 5 and 10 μM for 24 hours, concentration range of reducing glycolipids): did not influence on the proliferation rate
toxicity of PPMP on the cells ([2]; PPMP treatment for 24 hours): low
effect on cytotoxicity of fenretinide (4-HPR) [3]: synergistically enhances the cytotoxicity
effect on cytotoxicity of fenretinide (4-HPR) [4]: synergistically enhances the cytotoxicity
